Measured values taken from patent publication US20230143604A1, “QW DOSING OF GIP RECEPTOR AGONIST PEPTIDE COMPOUNDS AND USES THEREOF” (TAKEDA PHARMACEUTICAL COMPANY LIMITED, priority 2020, published 2023).
Read-outs that look alike come from different tables or passages of the source. Starred links: 1 amine or outer side, 2 acyl side, 3 side chain; linkers in the order of their positions; H or OH if unused. Non-standard residues stand in square brackets, D forms with d. Residues, ends and D or L forms follow the SMILES beside them. Groups on a side chain read outwards from the residue. *: point of attachment. C18 diacid = O=C(O)CCCCCCCCCCCCCCCCC(=O)*; γGlu = O=C(O)[C@H](CCC(=O)[*:2])N[*:1]; NMeY = CN[C@@H](Cc1ccc(O)cc1)C(=O)O; AEEA = NCCOCCOCC(=O)O; Aib = CC(C)(N)C(=O)O

Key:
male ferrets = format: in vivo
Protocol: 1. Effect of subcutaneously administered GIP receptor agonist peptide in morphine-induced acute emetic model.
To evaluate the antiemetic effect, the GIP receptor agonist peptides other than natural human GIP are subcutaneously administered into male ferrets 24 hrs before morphine administration. Up to 60 minutes after morphine administration, the condition of the ferrets is monitored to record the frequencies and time points of abdominal contraction motions, vomiting behaviors, licking with the tongue, and fidgety behavior occurring. GIP receptor agonist peptide compounds of the present disclosure dosed at 0.3-10 nmol/kg attenuated the morphine (0.6 mg/kg, s.c.)-induced emesis in the ferrets.
GIP receptor agonist peptides are dissolved with a vehicle (0.09 w/v % tween 80/10% DMSO/saline), respectively, to prepare test solutions. […] of the test solutions and the vehicle are subcutaneously administered to ferrets (4 in each group), respectively. At the time of each of 4 or 24 hours after administration, 0.6 mg/kg of morphine is subcutaneously administered.

physchem = assay: physchem
In short: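 Solubility at pH 7.4 determined by stepwise addition of 200 mM phosphate buffer in 100 μL increments to 3 mg peptide, mixing briefly each time, until no insoluble material remained, then measured by liquid chromatography.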

[1] = Pharmacokinetics in dog after IV and SC dosing; conditions: in vivo; for half-life: IV 3 nmol/kg, read-out: IV T½ (converted); for MRT last: SC 3 nmol/kg, read-out: SC MRT 0-last
In short: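 Dogs were dosed IV or SC at 1 mL/kg with peptide at 3 nmol/mL in 10% DMSO/0.09% Polysorbate/PBS pH 7.4. K2-EDTA plasma was sampled to 336 h, and peptide was quantified by LCMS to derive half-life.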

[2] = Human plasma protein binding (PPB); format: in vitro ADME; conditions: for fraction unbound: both sexes, pH 7.4, human plasma, 1000 nmol/L peptide, ultracentrifugation, read-out: Human PPB (FUplasma); for free unbound peptide in human plasma (in words): judged for once per week (QW) dosing
In short: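 Peptides spiked at 1000 nmol/L into pooled human K2-EDTA plasma adjusted to pH 7.4, incubated 30 min at 37 °C, then ultracentrifuged at ~450,000 g, 4 °C for 3 h. Fu derived from LC-MS/MS (MRM) peak area ratios, supernatant versus plasma.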

[3] = Dog plasma protein binding (PPB); format: in vitro ADME; conditions: pH 7.4; fraction unbound; dog serum; read-out: Dog PPB (FUplasma)
In short: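 Fraction unbound (Fu,plasma) is given as a percentage. It was measured with the method and analysis of the human protein-binding protocol, but using dog serum in place of human serum.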

C57BL/6J mice = assay: Oral glucose tolerance test (OGTT); format: in vivo; conditions: 3 nmol/kg s.c., 24 hours before glucose loading
In short: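 Peptide or vehicle given s.c. at 0.1, 0.3, 3 or 10 nmol/kg (peptide-dependent), 24 h before oral 50% dextrose at 5 ml/kg unless stated otherwise. Blood glucose read at 0, 15, 30 and 60 min. % inhibition = (1−(AUC cpd−AUC naïve)/(AUC veh−AUC naïve))×100.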

human GLP-1R = biological target: T1, human GLP-1R (Homo sapiens, UniProt P43220); assay: Human GLP1R agonist activity, intracellular cAMP accumulation; format: cell-based; conditions: HEK-293T cells overexpressing human GLP-1R, 1 hr, read-out: Human GLP1R cAMP EC50, HEK293T
T1 construct: HEK-293T cells overexpressing full-length human GLP-1R; FLAG (N); host or cells: HEK-293T
T1 sequence (P43220 24-463): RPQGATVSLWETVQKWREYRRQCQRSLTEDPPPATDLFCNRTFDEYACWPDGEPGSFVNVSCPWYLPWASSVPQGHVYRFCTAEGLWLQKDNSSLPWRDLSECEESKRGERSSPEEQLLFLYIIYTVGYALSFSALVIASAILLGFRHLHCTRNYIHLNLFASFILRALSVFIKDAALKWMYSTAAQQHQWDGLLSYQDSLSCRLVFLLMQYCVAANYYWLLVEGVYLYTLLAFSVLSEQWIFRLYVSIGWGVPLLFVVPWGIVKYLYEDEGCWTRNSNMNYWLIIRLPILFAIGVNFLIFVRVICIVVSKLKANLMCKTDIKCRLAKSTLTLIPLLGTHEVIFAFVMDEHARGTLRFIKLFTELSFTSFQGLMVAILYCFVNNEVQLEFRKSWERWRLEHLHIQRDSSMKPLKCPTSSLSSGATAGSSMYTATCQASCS
In short: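 cAMP accumulation is measured by HTRF after a 1 hr, room-temperature, dark exposure of thawed cells (4×10^5 cells/mL in Krebs Ringer buffer) to compound. Activity is scaled between DMSO alone as 0% and 1 nm GLP-1 as 100%.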

Dogs = format: in vivo; conditions: 10 nmol/kg s.c.
Protocol: Dogs are transferred to an observation cage (700 mm W×700 mm D×700 mm H [W×D×H], without food) on 1 day before each apomorphine challenge. The dogs are weighed by using an electronic balance then test peptide compounds and vehicle will be administrated via the subcutaneous route. Apomorphine is challenged at 8 hr after the administration and emetic events will be monitored for 1 h by video recording. The second apomorphine challenge will be 72 hr after the administration and emetic events will be recorded by the same protocol. Emesis symptoms are continuously recorded using a video camera and stored on a blue ray disc. Observation of symptoms include retching (a rhythmic contraction of the abdomen) and vomiting (vomiting behavior, including the elimination of vomitus or similar behavior). Besides, the combination of retching and vomiting is defined as emesis, and the number of episodes, latency (time elapsed from morphine administration until the onset of the first emesis symptom), duration (time elapsed between the onset of the first and final episodes of emesis), and frequency (number of animals showing emesis/number of experimental animals) of each of these symptoms is calculated. The latency in cases where emesis symptoms are not noted is taken as the maximum value (1 h for apomorphine challenge) at the end of observation. When the duration of the emesis symptoms is less than 1 min, the duration is recorded, for convenience, as 1 min.

female beagle dogs = assay: PYY-1119-induced vomiting in dogs; format: in vivo; conditions: 3 nmol/kg s.c., 72 hours post-dose (lower line)
Protocol: The GIPR agonist peptide compounds of the present disclosure or vehicle (0.09% [w/v] Tween 80/10% DMSO/PBS) were administered subcutaneously (sc) at 3-10 nmol/kg to female beagle dogs (10 months old), followed by sc injections with Y2R agonist ((4-imidazolecarbonyl-Ser-D-Hyp-Iva-Pya(4)-Cha-Leu(Me)-Asn-Lys-Aib-Thr-Arg-Gln-Arg-Cha-NH2), […]), […]) at 1 hour or specified hours in the table postdose. Emetic episodes were counted for 2 hours after administration (by blinded analysis).

## CC[C@H](C)[C@H](NC(=O)[C@H](Cc1ccccc1)NC(=O)[C@@H](NC(=O)CNC(=O)[C@H](CCC(=O)O)NC(=O)C(C)(C)NC(=O)[C@H](Cc1ccc(O)cc1)NC)[C@@H](C)O)C(=O)N[C@@H](CO)C(=O)N[C@@H](CC(=O)O)C(=O)N[C@@H](Cc1ccc(O)cc1)C(=O)N[C@@H](CO)C(=O)N[C@H](C(=O)NC(C)(C)C(=O)N[C@@H](CC(C)C)C(=O)N[C@@H](CC(=O)O)C(=O)N[C@@H](CCCNC(=N)N)C(=O)NC(C)(C)C(=O)N[C@@H](C)C(=O)N[C@@H](CCC(N)=O)C(=O)NC(C)(C)C(=O)N[C@@H](CCCCNC(=O)COCCOCCNC(=O)COCCOCCNC(=O)CC[C@H](NC(=O)CC[C@H](NC(=O)CCCCCCCCCCCCCCCCC(=O)O)C(=O)O)C(=O)O)C(=O)N[C@@H](Cc1ccccc1)C(=O)N[C@H](C(=O)N[C@@H](CC(N)=O)C(=O)N[C@@H](Cc1c[nH]c2ccccc12)C(=O)N[C@@H](CC(C)C)C(=O)N[C@@H](CC(C)C)C(=O)N[C@@H](C)C(=O)N[C@@H](CCC(N)=O)C(=O)N[C@@H](CCCNC(=N)N)C(=O)NCC(=O)O)C(C)C)[C@@H](C)CC [Compound 72, Me-Y-Aib-E-G-T-F-I-S-D-Y-S-I-Aib-L-D-R-Aib-A-Q-Aib-Km-F-V-N-W-L-L-A-Q-R-G-OH] (H-[NMeY][Aib]EGTFISDYSI[Aib]LDR[Aib]AQ[Aib]K([AEEA-AEEA-γGlu-γGlu-C18 diacid])FVNWLLAQRG-OH)
Male ferrets; in vivo, sc, 24 h
  % inhibition of emetic events at doses (nmol/kg) and timepoints shown in ferret morphine model: 100% (3 nmol/kg); 100%
physchem; pH 7.4
  solubility: ≥ 15 mg/mL
physchem; pH 7.4, aqueous buffer
  solubility: ≥ 60 mg/mL
[1]
  half-life: 3.83 days
  MRT last: 125 h
[2]
  fraction unbound: 0.0036
  free unbound peptide in human plasma (in words): optimum free unbound peptide
[3]
  fraction unbound: 0.0062

## CC[C@H](C)[C@H](NC(=O)[C@H](CO)NC(=O)[C@H](Cc1ccc(O)cc1)NC(=O)[C@H](CC(=O)O)NC(=O)[C@H](CO)NC(=O)[C@@H](NC(=O)[C@H](Cc1ccccc1)NC(=O)[C@@H](NC(=O)CNC(=O)[C@H](CCC(=O)O)NC(=O)C(C)(C)NC(=O)[C@H](Cc1ccc(O)cc1)NC)[C@@H](C)O)[C@@H](C)CC)C(=O)N[C@@H](C)C(=O)N[C@@H](CCCCNC(=O)CNC(=O)CNC(=O)CNC(=O)CNC(=O)CNC(=O)CCCCCCCCCCCCCCCCC(=O)O)C(=O)N[C@@H](CC(=O)O)C(=O)N[C@@H](CCCNC(=N)N)C(=O)NC(C)(C)C(=O)N[C@@H](C)C(=O)N[C@@H](CCC(N)=O)C(=O)NC(C)(C)C(=O)N[C@@H](CC(=O)O)C(=O)N[C@@H](Cc1ccccc1)C(=O)N[C@H](C(=O)N[C@@H](CC(N)=O)C(=O)N[C@@H](Cc1c[nH]c2ccccc12)C(=O)N[C@@H](CC(C)C)C(=O)N[C@@H](CC(C)C)C(=O)N[C@@H](C)C(=O)N[C@@H](CCC(N)=O)C(=O)N[C@@H](CO)C(=O)N1CCC[C@H]1C(=O)NCC(=O)O)C(C)C [Compound 84, Me-Y-Aib-E-G-T-F-I-S-D-Y-S-I-A-Km-D-R-Aib-A-Q-Aib-D-F-V-N-W-L-L-A-Q-S-P-G-OH]
C57BL/6J mice
  Oral Glucose Tolerance Test Percent decrease in blood glucose AUC (%) over 60 mins: 72% (3 nmol/kg)
Male ferrets; 24 hrs, 1 nmol/kg s.c.
  % inhibition of emetic events at doses (nmol/kg) and timepoints shown in ferret morphine model: 24 hrs: 65% (1 nmol/kg);
Male ferrets; morphine 0.6 mg/kg s.c., peptides dosed at 0.3-10 nmol/kg s.c.
  effect on morphine-induced emesis in ferrets (in words): effective in completely inhibiting the frequency of emesis
physchem; pH 7.4
  solubility: ≥ 15 mg/mL
physchem; pH 7.4, aqueous buffer
  solubility: ≥ 60 mg/mL
Human GLP-1R
  EC50: 58.9 nM
[1]
  half-life: 2.58 days
  MRT last: 82 h
[2]
  fraction unbound: 0.0009
  free unbound peptide in human plasma (in words): optimum free unbound peptide
[3]
  fraction unbound: 0.0003

## CC[C@H](C)[C@H](NC(=O)[C@H](Cc1ccccc1)NC(=O)[C@@H](NC(=O)CNC(=O)[C@H](CCC(=O)O)NC(=O)C(C)(C)NC(=O)[C@H](Cc1ccc(O)cc1)NC)[C@@H](C)O)C(=O)N[C@@H](CO)C(=O)N[C@@H](CC(=O)O)C(=O)N[C@@H](Cc1ccc(O)cc1)C(=O)N[C@@H](CO)C(=O)N[C@H](C(=O)NC(C)(C)C(=O)N[C@@H](CCCCNC(=O)CNC(=O)CNC(=O)CNC(=O)CNC(=O)CNC(=O)CCCCCCCCCCCCCCCCC(=O)O)C(=O)N[C@@H](CC(=O)O)C(=O)N[C@@H](CCCNC(=N)N)C(=O)NC(C)(C)C(=O)N[C@@H](C)C(=O)N[C@@H](CCC(N)=O)C(=O)NC(C)(C)C(=O)N[C@@H](CC(=O)O)C(=O)N[C@@H](Cc1ccccc1)C(=O)N[C@H](C(=O)N[C@@H](CCC(=O)O)C(=O)N[C@@H](Cc1c[nH]c2ccccc12)C(=O)N[C@@H](CC(C)C)C(=O)N[C@@H](CC(C)C)C(=O)N[C@@H](C)C(=O)N[C@@H](CCC(N)=O)C(=O)N[C@@H](CCCNC(=N)N)C(=O)NCC(=O)O)C(C)C)[C@@H](C)CC [Compound 108]
C57BL/6J mice
  Oral Glucose Tolerance Test Percent decrease in blood glucose AUC (%) over 60 mins: 65% (3 nmol/kg)
Dogs; after 8 hrs (upper)
  % inhibition of emetic events at doses (nmol/kg) shown in dog apomorphine model: 50% (10 nmol/kg)
Dogs; after 72 hours (lower)
  % inhibition of emetic events at doses (nmol/kg) shown in dog apomorphine model: 54% (10 nmol/kg)
physchem; pH 7.4
  solubility: ≥ 15 mg/mL
physchem; pH 7.4, aqueous buffer
  solubility: ≥ 60 mg/mL
Human GLP-1R
  EC50: 41.7 nM
Female beagle dogs
  Inhibition (%) of PYY-1119-induced emetic event: 96% (3 nmol/kg)

## CC[C@H](C)[C@H](NC(=O)[C@H](CCCNC(=N)N)NC(=O)[C@H](CC(=O)O)NC(=O)[C@H](CCCCNC(=O)CNC(=O)CNC(=O)CNC(=O)CNC(=O)CNC(=O)CCCCCCCCCCCCCCCCC(=O)O)NC(=O)[C@H](C)NC(=O)[C@@H](NC(=O)[C@H](CO)NC(=O)[C@H](Cc1ccc(O)cc1)NC(=O)[C@H](CC(=O)O)NC(=O)[C@H](CO)NC(=O)[C@@H](NC(=O)[C@H](Cc1ccccc1)NC(=O)[C@@H](NC(=O)CNC(=O)[C@H](CCC(=O)O)NC(=O)C(C)(C)NC(=O)[C@H](Cc1ccc(O)cc1)NC)[C@@H](C)O)[C@@H](C)CC)[C@@H](C)CC)C(=O)N[C@@H](C)C(=O)N[C@@H](CCC(N)=O)C(=O)N[C@@H](CCCNC(=N)N)C(=O)N[C@@H](CC(N)=O)C(=O)N[C@@H](Cc1ccccc1)C(=O)N[C@H](C(=O)N[C@@H](CCC(=O)O)C(=O)N[C@@H](Cc1c[nH]c2ccccc12)C(=O)N[C@@H](CC(C)C)C(=O)N[C@@H](CC(C)C)C(=O)N[C@@H](C)C(=O)N[C@@H](CCC(N)=O)C(=O)N[C@@H](CO)C(=O)N1CCC[C@H]1C(=O)N[C@@H](CO)C(=O)N[C@@H](CO)C(=O)NCC(=O)N[C@@H](C)C(=O)N1CCC[C@H]1C(=O)N1CCC[C@H]1C(=O)N1CCC[C@H]1C(=O)N[C@@H](CO)C(=O)O)C(C)C [Compound 179]
C57BL/6J mice
  Oral Glucose Tolerance Test Percent decrease in blood glucose AUC (%) over 60 mins: 58% (3 nmol/kg)
physchem; pH 7.4, aqueous buffer, pH 7.4 Phosphate Buffer - Solubility, 200 mM Phosphate buffer pH 7.4
  solubility: ≥ 30 mg/mL
physchem; pH 7.4, solubility in phosphate buffer at pH 7.4, 200 mM phosphate buffer pH 7.4
  solubility: ≥ 15 mg/mL
Female beagle dogs
  Inhibition (%) of PYY-1119-induced emetic event: 45% (3 nmol/kg)
